Data: ChEMBL document CHEMBL1201862, “PubChem BioAssay data set” (2004)
Activity calls are given as the source filed them.

Assays:
[1] = molecular target: Glyceraldehyde-3-phosphate dehydrogenase (Homo sapiens, UniProt P04406)
[2] = molecular target: T1, Ubiquitin-conjugating enzyme E2 N (Homo sapiens, UniProt P61088); format: functional;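 note: Dose-response confirmation in a TR-FRET assay detecting UBC13-driven polyubiquitin chain formation, inhibition measured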
T1 sequence (P61088 whole entry): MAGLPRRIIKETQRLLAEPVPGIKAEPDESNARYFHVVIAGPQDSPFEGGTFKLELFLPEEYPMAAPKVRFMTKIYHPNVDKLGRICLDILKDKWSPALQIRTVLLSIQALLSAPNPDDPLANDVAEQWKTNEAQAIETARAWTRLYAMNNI

H9c2 = experiment: cells; format: functional, cell-based; settings: Rattus norvegicus, H9c2, Myocardium;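 note: confirmatory concentration-response retest of ultra-high-throughput screening hits for modulation of myocardial damage; cell death induced by hydrogen peroxide oxidative stress; compound pretreatment for 60 min then peroxide exposure for 2 h; potency is for protecting the cells against peroxide damage rather than for killing them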
[3] = NIH-3T3 fibroblast cytotoxicity, dose response, cytotoxicity control, cell-based, fluorescence, Alamar Blue, secondary assay (AID 2327); format: functional;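 note: NIH-3T3 mouse fibroblasts cultured with fluconazole at 8 µg/mL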
Streptokinase A = molecular target: T2, Streptokinase A (Streptococcus pyogenes serotype M1, UniProt P10520); experiment: S. pyogenes streptokinase expression inhibitors, potency, dose response, plasminogen activation absorbance, OD405 (AID 1914); format: functional, Streptococcus pyogenes M1 GAS;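 note: secreted streptokinase activity via plasminogen activation per viability signal from cell pellet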
T2 sequence (P10520 whole entry): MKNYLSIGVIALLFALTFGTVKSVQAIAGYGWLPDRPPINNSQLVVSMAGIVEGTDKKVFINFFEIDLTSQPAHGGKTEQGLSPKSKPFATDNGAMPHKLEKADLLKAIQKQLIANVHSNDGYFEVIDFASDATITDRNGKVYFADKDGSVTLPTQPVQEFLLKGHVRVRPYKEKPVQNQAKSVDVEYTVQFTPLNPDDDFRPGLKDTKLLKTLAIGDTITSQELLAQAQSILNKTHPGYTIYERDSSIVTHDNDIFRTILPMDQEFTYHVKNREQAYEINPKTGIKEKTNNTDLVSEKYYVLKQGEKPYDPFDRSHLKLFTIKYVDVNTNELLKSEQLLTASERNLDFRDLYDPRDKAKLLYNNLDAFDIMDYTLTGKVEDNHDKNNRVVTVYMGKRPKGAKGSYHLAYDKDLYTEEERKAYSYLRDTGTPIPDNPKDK

[4] = C. albicans growth with fluconazole, confirmation, fluorescence, retest (AID 2467); format: functional, cell-based
Streptococcus = experiment: Group A Streptococcus viability loss, dose response, counter-screen for streptokinase expression inhibitor project, luminescence, BacTiterGlo (AID 1915); format: functional, organism-based;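 note: potency for reduction of bacterial viability or growth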
[5] = system: Streptococcus sp. 'group A'; experiment: growth inhibition of control SK(-) GAS strain, dose response, counter-screen for streptokinase expression inhibitor project, luminescence, kanamycin, BacTiterGlo, confirmation (AID 1900); format: functional, organism-based
Paired box protein Pax-8 = Paired box protein Pax-8 (Homo sapiens, UniProt Q06710); experiment: inhibitors of PAX8-driven TPO luciferase reporter, dose response, RMG-I cells, cherry-pick (AID 687027); format: functional, cell-based;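 note: luciferase reporter driven by Pax8 target thyroperoxidase promoter measured by SteadyGlo luminescence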
Paired box protein Pax-8, sequence (Q06710 whole entry): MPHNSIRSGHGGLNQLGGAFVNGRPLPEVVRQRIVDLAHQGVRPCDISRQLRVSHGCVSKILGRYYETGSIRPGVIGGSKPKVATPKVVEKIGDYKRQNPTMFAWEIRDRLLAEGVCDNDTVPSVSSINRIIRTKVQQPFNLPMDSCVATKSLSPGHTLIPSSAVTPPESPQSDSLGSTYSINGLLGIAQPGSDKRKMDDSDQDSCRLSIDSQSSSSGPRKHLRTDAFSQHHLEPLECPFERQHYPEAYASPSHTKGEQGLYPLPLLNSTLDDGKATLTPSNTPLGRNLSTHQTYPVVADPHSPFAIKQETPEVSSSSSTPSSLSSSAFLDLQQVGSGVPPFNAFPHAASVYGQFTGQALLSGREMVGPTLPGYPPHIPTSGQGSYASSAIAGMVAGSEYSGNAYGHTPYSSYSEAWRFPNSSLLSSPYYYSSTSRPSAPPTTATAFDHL

Large T antigen = Large T antigen (Simian virus 40, UniProt P03070); format: functional, Betapolyomavirus macacae;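 note: Confirmatory-stage PubChem screen for compounds that inhibit SV40 T antigen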
Large T antigen, sequence (P03070 whole entry): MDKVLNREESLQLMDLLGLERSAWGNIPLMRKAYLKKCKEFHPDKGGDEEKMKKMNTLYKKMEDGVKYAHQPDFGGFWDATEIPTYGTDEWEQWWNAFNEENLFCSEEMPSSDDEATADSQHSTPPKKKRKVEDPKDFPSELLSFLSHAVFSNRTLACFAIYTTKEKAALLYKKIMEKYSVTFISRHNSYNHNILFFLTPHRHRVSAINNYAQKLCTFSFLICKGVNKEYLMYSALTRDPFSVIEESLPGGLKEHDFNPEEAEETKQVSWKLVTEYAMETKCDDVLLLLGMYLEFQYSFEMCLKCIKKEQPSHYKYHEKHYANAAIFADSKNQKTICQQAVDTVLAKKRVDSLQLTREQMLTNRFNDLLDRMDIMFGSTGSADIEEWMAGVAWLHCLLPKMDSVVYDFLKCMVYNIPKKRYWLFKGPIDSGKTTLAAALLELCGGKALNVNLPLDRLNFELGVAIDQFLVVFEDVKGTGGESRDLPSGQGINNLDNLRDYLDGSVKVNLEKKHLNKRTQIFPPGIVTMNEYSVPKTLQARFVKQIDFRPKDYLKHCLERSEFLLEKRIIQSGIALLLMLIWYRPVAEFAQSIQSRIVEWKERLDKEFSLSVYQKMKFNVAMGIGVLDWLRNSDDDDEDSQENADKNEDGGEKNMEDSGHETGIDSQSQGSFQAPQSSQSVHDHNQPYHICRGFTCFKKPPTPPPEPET

[6] = molecular target: FAD-linked sulfhydryl oxidase ALR (Homo sapiens, UniProt P55789); experiment: inhibitors of human ALR sulfhydryl oxidase, dose response, biochemical, H2O2 detection, luminescence, cherry-pick (AID 493248)
FAD-linked sulfhydryl oxidase ALR, sequence (P55789 whole entry): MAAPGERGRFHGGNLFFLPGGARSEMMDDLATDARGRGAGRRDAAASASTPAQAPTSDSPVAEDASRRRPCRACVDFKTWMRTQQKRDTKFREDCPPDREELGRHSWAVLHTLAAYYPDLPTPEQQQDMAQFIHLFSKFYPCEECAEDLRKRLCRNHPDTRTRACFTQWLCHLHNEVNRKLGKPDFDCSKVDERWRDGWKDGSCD

[7] = inhibitors of intracellular T. cruzi replication, confirmation, NIH3T3 host cells, beta-gal luminescence (AID 2044); format: functional, cell-based;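 note: intracellular parasites grown in NIH/3T3 mouse fibroblasts as host cells; luminescent beta-galactosidase reporter signal from transgenic T. cruzi replicating inside host cells; inhibitors lower the luminescence signal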
[8] = molecular target: T3, Heat shock factor protein 1 (Mus musculus, UniProt P38532); experiment: inhibition of MG132-induced HSE-luciferase signal, confirmation, cell-based, NIH3T3, luminescence, dose retest (AID 2382); format: functional;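 note: NIH3T3 fibroblasts with HSF1-driven luciferase reporter stressed by proteasome inhibitor MG132; luminescence from HSF1-driven luciferase expression after 8 hours of MG132 stress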
T3 sequence (P38532 whole entry): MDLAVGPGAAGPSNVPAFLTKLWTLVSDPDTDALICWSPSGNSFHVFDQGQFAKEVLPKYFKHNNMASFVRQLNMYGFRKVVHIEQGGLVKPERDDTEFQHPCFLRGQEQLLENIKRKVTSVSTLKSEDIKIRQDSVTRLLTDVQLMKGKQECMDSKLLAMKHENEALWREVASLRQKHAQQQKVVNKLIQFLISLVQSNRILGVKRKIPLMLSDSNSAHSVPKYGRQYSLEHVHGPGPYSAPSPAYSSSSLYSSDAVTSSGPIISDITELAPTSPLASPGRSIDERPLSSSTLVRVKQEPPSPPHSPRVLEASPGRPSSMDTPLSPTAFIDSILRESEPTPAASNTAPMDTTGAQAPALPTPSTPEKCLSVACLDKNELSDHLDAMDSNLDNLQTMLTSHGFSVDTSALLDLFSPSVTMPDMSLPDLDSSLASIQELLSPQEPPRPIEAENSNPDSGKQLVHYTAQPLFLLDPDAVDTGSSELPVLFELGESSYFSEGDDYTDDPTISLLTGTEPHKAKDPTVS

[9] = cytotoxicity toward NIH3T3 fibroblasts, dose response, counter-screen, cell-based, ATP luminescence, mouse fibroblasts (AID 2010); format: functional;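 note: cells exposed to compound for about 90 hours before reading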
[10] = HepG2 cell cytotoxicity, dose response, cytotoxicity control for Shn3 inhibitor project, CellTiter-Glo, cherry-picked (AID 624134); format: functional, cell-based
INS1 = experiment: beta cell apoptosis inhibitors, cytokine rescue, dose response, luminescence, retest (AID 449756); format: functional, cell-based; settings: Rattus norvegicus;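 note: cell death triggered by IL-1 beta plus TNF-alpha plus IFN-gamma mixture; protective hits raise ATP signal compared with cytokine alone wells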
[11] = control 3'UTR Renilla luciferase suppression, dose response, counter-screen for Shn3 inhibitor project, cell-based, Clone20-Shn3RL, cherry-picked (AID 624133); format: functional
[12] = Shn3 3'UTR reporter inhibitors, dose response, cell-based, Clone20 osteoblasts, firefly luciferase, cherry-picked (AID 624132); format: functional;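 note: firefly luciferase luminescence from reporter carrying the Shn3 3'UTR in osteoblasts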
[13] = molecular target: T3, Heat shock factor protein 1; experiment: HSF1 potentiators in luciferase reporter cells, confirmation, cell-based, NIH3T3, luminescence, dose retest (AID 435004); format: functional;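 note: stress induced by proteasome inhibitor MG132 added 30 min after compound; luciferase reporter driven by HSF1 response element in NIH3T3 cells; actives raise luminescence as potentiators of the MG132 stress response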
[14] = molecular target: T4, Rac GTPase-activating protein 1 (Homo sapiens, UniProt Q9H0H5); experiment: MgcRacGAP GTPase-activating activity inhibitors, confirmation, biochemical, ADP Hunter fluorescence, primary and confirmatory (AID 624330); format: functional
T4 sequence (Q9H0H5 whole entry): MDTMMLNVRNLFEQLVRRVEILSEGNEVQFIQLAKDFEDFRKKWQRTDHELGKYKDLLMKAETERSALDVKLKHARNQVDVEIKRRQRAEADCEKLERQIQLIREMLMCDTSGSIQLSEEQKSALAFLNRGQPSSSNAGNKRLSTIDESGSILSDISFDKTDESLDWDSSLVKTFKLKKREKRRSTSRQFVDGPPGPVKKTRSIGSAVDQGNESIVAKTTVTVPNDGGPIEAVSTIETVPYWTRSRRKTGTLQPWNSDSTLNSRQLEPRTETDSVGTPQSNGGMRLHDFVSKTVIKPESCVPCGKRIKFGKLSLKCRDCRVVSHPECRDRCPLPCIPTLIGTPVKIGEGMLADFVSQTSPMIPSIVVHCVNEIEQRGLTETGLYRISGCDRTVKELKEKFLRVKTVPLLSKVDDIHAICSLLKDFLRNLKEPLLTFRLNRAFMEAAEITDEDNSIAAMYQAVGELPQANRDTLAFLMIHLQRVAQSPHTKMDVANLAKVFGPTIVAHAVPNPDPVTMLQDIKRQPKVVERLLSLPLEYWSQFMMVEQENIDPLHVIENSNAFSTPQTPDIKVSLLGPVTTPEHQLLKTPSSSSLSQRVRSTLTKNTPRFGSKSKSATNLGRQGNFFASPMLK

Glyceraldehyde-3-phosphate dehydrogenase, sequence (P04406 whole entry): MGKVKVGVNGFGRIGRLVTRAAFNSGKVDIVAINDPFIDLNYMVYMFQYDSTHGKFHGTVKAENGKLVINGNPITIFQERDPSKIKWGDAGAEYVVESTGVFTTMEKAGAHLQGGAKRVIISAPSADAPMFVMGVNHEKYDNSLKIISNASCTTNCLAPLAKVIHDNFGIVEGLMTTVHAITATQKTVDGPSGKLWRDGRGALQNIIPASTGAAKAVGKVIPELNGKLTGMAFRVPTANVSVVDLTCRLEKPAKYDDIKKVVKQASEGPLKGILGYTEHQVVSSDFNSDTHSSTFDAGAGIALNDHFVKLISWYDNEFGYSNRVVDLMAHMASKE

Cc1cccc(N2C(=O)C(Cl)=C(N3CCN(Cc4ccc5c(c4)OCO5)CC3)C2=O)c1
IC50 [1]: > 50 µM (inconclusive)

NCCCC[C@@H]1NC(=O)c2cc([N+](=O)[O-])cc(I)c2SC[C@@H](C(N)=O)NC(=O)[C@H](Cc2ccc(O)cc2)NC1=O
IC50 [2]: > 20 µM (inactive)

COc1ccc(C=NNc2nc3c(=O)n(C)c(=O)n(C)c3[nH]2)cc1
IC50 (H9c2): > 79 µM (inactive)

CCCCCCCCC(=O)N1CCN(c2cc3c(cc2F)c(=O)c(C(=O)O)cn3CC)CC1
IC50 [2]: > 20 µM (inactive)

COc1ccc(F)cc1S(=O)(=O)Nc1cnc2ccccc2c1
IC50 [1]: > 10 µM (inconclusive)

O=C(COc1ccc(F)cc1)Nc1nc(-c2ccccn2)cs1
EC50 [3]: > 150 µM (inactive) | EC50 (Streptokinase A): > 150 µM (not active) | EC50 [4]: 2.59 µM (active) | EC50 (Streptococcus): 16.1 µM (active) | IC50 (H9c2): 16.1 µM (active) | EC50 [5]: 7.19 µM (active)

O=C(O)c1cc(S(=O)(=O)Nc2cccc(Cl)c2)ccc1O
IC50 [1]: > 100 µM (not active)

NS(=O)(=O)c1ccc(NS(=O)(=O)c2ccc(O)c(C(=O)O)c2)cc1
IC50 [1]: > 100 µM (not active)

O=C(c1ccc(-c2nc3ccccc3s2)o1)N1CCN(c2ccccc2O)CC1
IC50 (H9c2): > 79 µM (inactive)

C[C@@H]1CN([C@H](C)CO)S(=O)(=O)c2ccc(C#CC3CCCC3)cc2O[C@@H]1CN(C)C(=O)Cc1ccncc1
AC50 (Paired box protein Pax-8): 16.5 µM (active)

COc1cc(OC)cc(C(=O)NNC(=O)CCc2nc(O)c3ccccc3n2)c1
IC50 (H9c2): 19.6 µM (active)

O=C(NCC1CCCO1)C(c1ccc(F)cc1)N(C(=O)Cn1nnc(-c2ccc(F)cc2)n1)c1cccc(O)c1 (stereo unspecified)
IC50 (H9c2): > 79 µM (inactive)

COc1cc2c(OC)c3ccoc3nc2cc1O
IC50 (Large T antigen): 20 µM (active) | AC50 [6]: 0.49 µM (active)

COc1ccc(Cc2nc3ccccc3n2CC(=O)N/N=C/c2ccc(O)cc2)cc1OC
IC50 (Large T antigen): > 100 µM (active) | AC50 [6]: 0.901 µM (active)

Cc1cc(C)cc(N(CCC#N)C(=O)COC(=O)Cn2[nH]c(=O)c3ccccc3c2=O)c1
IC50 (H9c2): > 79 µM (inactive)

Cc1cc(C)cc(OCC(=O)Nc2cccc(-c3nnc(-c4ccco4)o3)c2)c1
IC50 (H9c2): 9.22 µM (active)

O=C(COc1ccc(F)cc1Cl)Nc1nc(-c2ccccn2)cs1
EC50 [7]: 1.57 µM (active) | EC50 (Streptococcus): 3.29 µM (active) | EC50 [8]: 41.4 µM (active) | EC50 [9]: 3.74 µM (active) | IC50 (H9c2): > 79 µM (inactive) | EC50 [5]: 0.751 µM (active)

CN(C)S(=O)(=O)c1ccc(Oc2ccc(S(=O)(=O)N(C)C)cc2)cc1
AC50 [10]: 53.5 µM (active) | AC50 (INS1): 6.33 µM (active) | AC50 [11]: 12.1 µM (active) | AC50 [12]: 3.04 µM (active)

CC(C)(C)OC(=O)NCCCCCNC(=O)c1[nH]cnc1C(=O)Nc1ccc(Cl)cc1
IC50 (H9c2): > 79 µM (inactive)

O=Cc1ccc(OCc2cccc(C(F)(F)F)c2)cc1O
IC50 (H9c2): > 79 µM (inactive)

Cn1c(SCc2cccc(Br)c2)nc2ccccc2c1=O
AC50 [10]: 59.8 µM (active) | AC50 [11]: 3.47 µM (active) | AC50 [12]: 7.68 µM (active)

CCN(CC(=O)Nc1c(F)cccc1F)C(=O)CCc1nc(O)c2ccccc2n1
IC50 (H9c2): > 79 µM (inactive)

COc1ccc(-c2cc(=O)oc3c(O)c(O)ccc23)cc1
IC50 (Large T antigen): 8.81 µM (active) | AC50 [6]: 1.35 µM (active)

Cc1ccc(S(=O)(=O)N2[C@H](c3cccc(Cl)c3)CC(=O)[C@@H]3CN(S(=O)(=O)c4ccccc4C)[C@H](c4ccc(Cl)cc4)C[C@@H]32)cc1
AC50 [10]: 5.61 µM (active) | AC50 [11]: 0.62 µM (active) | AC50 [12]: 0.289 µM (active)

COC(=O)Oc1ccc(/C=C/C(=O)OC(C)C)cc1OC(=O)OC
IC50 (H9c2): > 79 µM (inactive) | AC50 [11]: 2.56 µM (active) | AC50 [12]: 3.29 µM (active)

CC(=O)Nc1cccc(-c2cc(NC=O)c3ncc(-c4cccc(C(C)=O)c4)n3c2)c1
IC50 (H9c2): > 79 µM (inactive)

Cc1ccc(S(=O)(=O)CCC(=O)OCC(=O)Nc2cc(S(=O)(=O)N3CCOCC3)ccc2C)cc1
AC50 [11]: 1.76 µM (active) | AC50 [12]: 17.8 µM (active)

Cc1cc(C)c(C(=O)/C=C/c2cccc3ccccc23)c(O)n1
AC50 (Paired box protein Pax-8): 5.27 µM (active) | EC50 [13]: 6.62 µM (active)

Nc1ccc2c(c1)nc(O)c1ccccc12
IC50 (H9c2): 8.49 µM (active)

C[C@@H]1CCCCO[C@@H](CN(C)C(=O)Nc2ccc(C(F)(F)F)cc2)[C@H](C)CN([C@@H](C)CO)C(=O)c2cc(NC(=O)Nc3ccc(C(F)(F)F)cc3)ccc2O1
AC50 (Paired box protein Pax-8): 2.31 µM (active)

O=C1C(Cl)=C(N2CCN(CCOCCO)CC2)C(=O)N1c1ccc(Cl)nc1
IC50 [1]: > 50 µM (inconclusive)

Cc1nc(C)c(CC(=O)N/N=C/c2ccc(O)cc2)c(O)n1
AC50 [6]: 2.17 µM (active) | IC50 [14]: 69.6 µM (active)

COc1cc(/C=N/NC(=O)CNC(=O)c2ccco2)ccc1O
IC50 (Large T antigen): 6.31 µM (active) | AC50 [6]: 3.47 µM (active) | IC50 [14]: 38.5 µM (active)

CCCN1CCN(C(=O)CCc2nnc3ccc(N4CCN(c5cccc(OC)c5)CC4)nn23)CC1
IC50 (H9c2): > 79 µM (inactive)
